From patent US20240207427A1, “SELECTIVE DRUG RELEASE FROM INTERNALIZED CONJUGATES OF BIOLOGICALLY ACTIVE COMPOUNDS” (priority 2021, published 2024)
Where two headings read alike, the source gives them in different places.

Experiments:
Type in all cases: cell-based
[1] = tested on: renal carcinoma cells (786-O); test: In vitro potency (CellTiter-Glo, 96 h), 786-O; conditions: Homo sapiens, 786-0, 96 h, CPT free drugs, renal carcinoma cells 786-O, 96 h, CellTiter-Glo
Description: (§1) In vitro potency was assessed on multiple cancer cell lines. All cell lines were authenticated by STR profiling at IDEXX Bioresearch and cultured for no more than 2 months after resuscitation. Cells cultured in log-phase growth were seeded for 24 hours in 96-well plates containing […] RPMI 1640 supplemented with 20% FBS. Serial dilutions of antibody-drug conjugates in cell culture media were prepared at 4× working concentrations, and 50 μL of each dilution was added to the 96-well plates. Following addition of test articles, cells were incubated with test articles for 4 days at 37 0° C. After 96 hours, growth inhibition was assessed by CellTiterGlo® (Promega, Madison, WI) and luminescence was measured on a plate reader.
(§2) In Table 7, IC50 values for ADCs are given in ng/mL. Cell viability was determined by CellTiter-Glo staining after 96 h exposure to ADC. ND=Not Determined. Ag2 is an antibody targeting a ubiquitous and readily internalizable antigen. The cancer cell lines tested are renal carcinoma cells (786-0), melanoma cells (A2058), pancreatic cancer cells (BxPC3), non-small-cell lung cancer cells (Calu1), anaplastic large cell lymphoma cells (DEL, DELBVR, Karpas299), Hodgkin's lymphoma cells (L540cy), (Ls174T), breast cancer cells (MDA-MB-231), acute myeloid leukemia cells (MOLM-13), and B-lymphocyte cancer cells (SU-DHL4).
as §1, with “FBS.” for “FBS. Serial dilutions of antibody-drug conjugates in cell culture media were prepared at 4× working concentrations, and 50 μL of each dilution was added to the 96-well plates.”
(§3) Cell viability was determined by CellTiter-Glo staining after 96 h exposure to the compound. ND=Not Determined. The cancer cell lines tested are renal carcinoma cells (786-0), melanoma cells (A2058), pancreatic cancer cells (BxPC3), non-small-cell lung cancer cells (Calu1), anaplastic large cell lymphoma cells (DEL, DELBVR, Karpas299), Hodgkin's lymphoma cells (L540cy), (Ls 174T), breast cancer cells (MDA-MB-231), acute myeloid leukemia cells (MOLM-13), B-lymphocyte cancer cells (SU-DHL4), multiple myeloma cells (MM.1R), (U266), and melanoma cells (SK-MEL-5).
as §1, with “37°” for “37 0°”
(§4) In the following Tables IC50 values for ADCs and CPT free drugs are given in ng/mL and nmol/L concentrations. Cell viability was determined by CellTiter-Glo staining after 96 h exposure to ADC or CPT free drug.
(§5) Cell viability was determined by CellTiter-Glo staining after 96 h exposure to ADC. ND=Not Determined.

[2] = tested on: pancreatic cancer cells (BxPC3); test: In vitro potency (CellTiter-Glo, 96 h), BxPC3; conditions: Homo sapiens, BXPC-3, 96 h, CPT free drugs, pancreatic cancer cells BxPC3, 96 h, CellTiter-Glo
Description: as §1, §2
as §1, with “FBS.” for “FBS. Serial dilutions of antibody-drug conjugates in cell culture media were prepared at 4× working concentrations, and 50 μL of each dilution was added to the 96-well plates.”
as §3
as §1, with “37°” for “37 0°”
as §4, §5

[3] = tested on: anaplastic large cell lymphoma cells (DEL); test: In vitro potency (CellTiter-Glo, 96 h), DEL
Description: as §1, §2
as §1, with “FBS.” for “FBS. Serial dilutions of antibody-drug conjugates in cell culture media were prepared at 4× working concentrations, and 50 μL of each dilution was added to the 96-well plates.”
as §3
as §1, with “37°” for “37 0°”
as §4, §5

[4] = tested on: anaplastic large cell lymphoma cells (DELBVR); test: In vitro potency (CellTiter-Glo, 96 h), DELBVR
Description: as §1, §2
as §1, with “FBS.” for “FBS. Serial dilutions of antibody-drug conjugates in cell culture media were prepared at 4× working concentrations, and 50 μL of each dilution was added to the 96-well plates.”
as §3
as §1, with “37°” for “37 0°”
as §4, §5

[5] = tested on: anaplastic large cell lymphoma cells (Karpas299); test: In vitro potency (CellTiter-Glo, 96 h), Karpas299; conditions: Homo sapiens, KARPAS-299, 96 h, CPT free drugs, anaplastic large cell lymphoma cells Karpas299, 96 h, CellTiter-Glo
Description: as §1, §2
as §1, with “FBS.” for “FBS. Serial dilutions of antibody-drug conjugates in cell culture media were prepared at 4× working concentrations, and 50 μL of each dilution was added to the 96-well plates.”
as §3
as §1, with “37°” for “37 0°”
as §4, §5

[6] = tested on: Hodgkin's lymphoma cells (L540cy); test: In vitro potency (CellTiter-Glo, 96 h), L540cy
Description: as §1, §2
as §1, with “FBS.” for “FBS. Serial dilutions of antibody-drug conjugates in cell culture media were prepared at 4× working concentrations, and 50 μL of each dilution was added to the 96-well plates.”
as §3
as §1, with “37°” for “37 0°”
as §4, §5

Ls174T cells = test: In vitro potency (CellTiter-Glo, 96 h), Ls174T; conditions: Homo sapiens, LS174T, 96 h, CPT free drugs, Ls174T cells, 96 h, CellTiter-Glo
Description: as §1, §2
as §1, with “FBS.” for “FBS. Serial dilutions of antibody-drug conjugates in cell culture media were prepared at 4× working concentrations, and 50 μL of each dilution was added to the 96-well plates.”
as §3
as §1, with “37°” for “37 0°”
as §4, §5

[7] = tested on: breast cancer cells (MDA-MB-231); test: In vitro potency (CellTiter-Glo, 96 h), MDA-MB-231; conditions: Homo sapiens, MDA-MB-231, 96 h, CPT free drugs, breast cancer cells MDA-MB-231, 96 h, CellTiter-Glo
Description: as §1, §2
as §1, with “FBS.” for “FBS. Serial dilutions of antibody-drug conjugates in cell culture media were prepared at 4× working concentrations, and 50 μL of each dilution was added to the 96-well plates.”
as §3
as §1, with “37°” for “37 0°”
as §4, §5

[8] = tested on: acute myeloid leukemia cells (MOLM-13); test: In vitro potency (CellTiter-Glo, 96 h), MOLM-13; conditions: Homo sapiens, MOLM-13, 96 h, CPT free drugs, acute myeloid leukemia cells MOLM-13, 96 h, CellTiter-Glo
Description: as §1, §2
as §1, with “FBS.” for “FBS. Serial dilutions of antibody-drug conjugates in cell culture media were prepared at 4× working concentrations, and 50 μL of each dilution was added to the 96-well plates.”
as §3
as §1, with “37°” for “37 0°”
as §4, §5

[9] = tested on: B-lymphocyte cancer cells (SU-DHL4); test: In vitro potency (CellTiter-Glo, 96 h), SU-DHL-4; conditions: Homo sapiens, SU-DHL-4, 96 h, CPT free drugs, B-lymphocyte cancer cells SU-DHL4, 96 h, CellTiter-Glo
Description: as §1, §2
as §1, with “FBS.” for “FBS. Serial dilutions of antibody-drug conjugates in cell culture media were prepared at 4× working concentrations, and 50 μL of each dilution was added to the 96-well plates.”
as §3
as §1, with “37°” for “37 0°”
as §4, §5

[10] = read-out: DEL IC50, Table 28, CPT free drugs, anaplastic large cell lymphoma cells DEL, CellTiter-Glo
[11] = read-out: DELBVR IC50, Table 28, CPT free drugs, anaplastic large cell lymphoma cells DELBVR, CellTiter-Glo
[12] = read-out: Karpas299 IC50, Table 28
[13] = read-out: L540cy IC50, Table 28, CPT free drugs, Hodgkin's lymphoma cells L540cy, CellTiter-Glo
[14] = read-out: Ls174T IC50, Table 28
[15] = read-out: MDAMB231 IC50, Table 28
[16] = read-out: MOLM-13 IC50, Table 28
[17] = read-out: SU-DHL-4 IC50, Table 28

SMILES	IC50 ([1]; read-out: 786-O IC50, Table 29)	IC50 ([2]; read-out: BxPC3 IC50, Table 29)	IC50 ([3]; read-out: DEL IC50, Table 29, CPT free drugs, anaplastic large cell lymphoma cells DEL, CellTiter-Glo)	IC50 ([4]; read-out: DELBVR IC50, Table 29, CPT free drugs, anaplastic large cell lymphoma cells DELBVR, CellTiter-Glo)	IC50 ([5]; read-out: Karpas299 IC50, Table 29)	IC50 ([6]; read-out: L540cy IC50, Table 29, CPT free drugs, Hodgkin's lymphoma cells L540cy, CellTiter-Glo)	IC50 (Ls174T cells; read-out: Ls174T IC50, Table 29)	IC50 ([7]; read-out: MDAMB231 IC50, Table 29)	IC50 ([8]; read-out: MOLM-13 IC50, Table 29)	IC50 ([9]; read-out: SU-DHL-4 IC50, Table 29)	IC50 ([1]; read-out: 786-O IC50, Table 28)	IC50 ([2]; read-out: BxPC3 IC50, Table 28)	IC50 [3, 10]	IC50 [4, 11]	IC50 [5, 12]	IC50 [6, 13]	IC50 (Ls174T cells; [14])	IC50 [7, 15]	IC50 [8, 16]	IC50 [9, 17]
CC[C@@]1(O)C(=O)OCc2c1cc1n(c2=O)Cc2c-1nc1cc3c(cc1c2CN1CCC(N)CC1)OCO3 [Compound 8f]	267 nM	166 nM	14 nM	30 nM	110 nM	84 nM	236 nM	207 nM	32 nM	32 nM	–	–	–	–	–	–	–	–	–	–
CC[C@@]1(O)C(=O)OCc2c1cc1n(c2=O)Cc2c-1nc1cc3c(cc1c2CNC(C)=O)CCO3 [Compound 12]	–	–	–	–	–	–	–	–	–	–	13 nM	12 nM	1 nM	1 nM	24 nM	5 nM	19 nM	27 nM	5 nM	1 nM
CC[C@@]1(O)C(=O)OCc2c1cc1n(c2=O)Cc2c-1nc1cc(F)c(C)c(Cl)c1c2CNC(C)=O [Compound 12a]	–	–	–	–	–	–	–	–	–	–	1 nM	2 nM	0.2 nM	0.2 nM	1 nM	0.4 nM	7 nM	2 nM	1 nM	0.4 nM
CC[C@@]1(O)C(=O)OCc2c1cc1n(c2=O)Cc2c-1nc1cc3c(cc1c2CNC(=O)CN)CCO3 [Compound 13]	–	–	–	–	–	–	–	–	–	–	139 nM	94 nM	8 nM	21 nM	126 nM	45 nM	195 nM	177 nM	88 nM	18 nM
CC[C@@]1(O)C(=O)OCc2c1cc1n(c2=O)Cc2c-1nc1cc(F)c(C)c(Cl)c1c2CNC(=O)CN [Compound 13a]	–	–	–	–	–	–	–	–	–	–	6 nM	5 nM	0.3 nM	1 nM	1 nM	1 nM	44 nM	5 nM	2 nM	1 nM
